Assay results as given in patent EP4129284B1, “SERTACONAZOL FOR PROVIDING A SPORISTATIC AND/OR SPORICIDAL EFFECT” (Dr. Pfleger Arzneimittel GmbH, priority 2021, dated 2023).

Test system: full skin models
Type: cell-based, human
Procedure: Additionally, the influence on the cell viability and the release of lactate dehydrogenase (LDH) was examined over the incubation time. Disruptions of the cell membranes can be measured by the release of the cytosolic enzyme LDH and be evaluated as a marker for cellular necrosis. As the biocompatibility of the material is determined by further cellular and molecular factors, the analysis of the cellular interleukin release allows the conclusion on e.g. pro-inflammatory effects of the substances, which would not be possible to be detected by sole cytotoxicity. Such interleukins are interleukins 1α, 6 or 8, which are involved in coordinating the cellular proliferation, cell migration and possible inflammatory processes. Such a method is described in, for example, Wiegand C, Hipler UC. Evaluation of biocompatibility and cytotoxicity using keratinocyte and fibroblast cultures. Skin Pharmacol Physiol 2009; 22:74-82; Wiegand C, Winter D, Hipler UC. Molecular-weight-dependent toxic effects of chitosans on the human keratinocyte cell line HaCaT. Skin Pharmacol Physiol. 2010;23(3):164-70.
The spore suspensions and the solutions of sertaconazol, ciclopiroxolamin and terbinafin were prepared as in Example 1, wherein the respective test concentrations were obtained by diluting these solutions in ultrapure water (WFI; Fresenius Kabi) instead of SGB (Merck). Full skin models were produced as previously described [Reddersen K, Wiegand C, Elsner P, Hipler UC. Three-dimensional human skin model infected with Staphylococcus aureus as a tool for evaluation of bioactivity and biocompatibility of antiseptics. Int J Antimicrob Agents. 2019; 54(3):283-291; Wiegand C, Fink S, Beier O, Horn K, Pfuch A, Schimanski A, Grünler B, Hipler UC, Elsner P. Dose- and Time-Dependent Cellular Effects of Cold Atmospheric Pressure Plasma Evaluated in 3D Skin Models. Skin Pharmacol Physiol. 2016;29(5):257-265].Particularly, normal human dermal fibroblasts (NHDF; Lot 1060702.1, Promocell) and normal human epidermal keratinocytes (NHEK; Lot 9100102, Promocell) were used. Fibroblasts were cultivated in Dulbecco's modified eagle medium (DMEM; Lot MC09049P, Amimed), with 2% foetal calf serum (Lot P160509; PAN), 5 ng/mL hFGF (Lot 0329586; novoprotein) and 5 µg/ml Insulin (Lot H07443P, AMIMED) at 37°C and a 5% CO2 atmosphere. Keratinocytes were cultivated in keratinocyte medium (KBM, Lot 446M063, Promocell) at 37°C and a 5% CO2 atmosphere. The cultivation was performed over 7 days in 75 cm^2 cell culture flasks (Greiner Bio-One). The cells were subsequently detached with Trypsin-EDTA (Lot 2091326; Gibco) and dissolved in the respective medium. For producing the dermis equivalent, fibroblasts were cultivated in 12-well inserts (Greiner bio-one) with DMEM (Lot MC09049P, Amimed) + 10% foetal calf serum (Lot P160509, PAN) + 1% Gentamycin (Lot 2027100, Gibco) + 150 µg/ml ascorbic acid (Lot BCBS1081V, Sigma) for 3 weeks at […] and 5 % CO2. The medium was changed all 2-3 days. Before seeding the keratinocytes for producing the […], the medium surrounding the insert was completely removed and the dermis upper layer was coated with fibronectin (50 µg/mL; Lot 435P078, Promocell). After 30 min of incubation of the dermis equivalent with fibronectin, the seeding of the keratinocytes was performed with 2 × 10^5 cells / insert in KBM (Lot 446M063, Promocell) + 5% FKS (Lot P160509, PAN) + 1% Gentamycin (Lot 2027100, Gibco). Subsequently, the skin models were incubated for 45 min in the incubator before the models were flooded with KBM + 5% FKS + 1% Gentamycin. The skin models were cultivated for 7 days by submersion in the medium with decreasing foetal calf serum concentration (5 %, 2 %, 0 %). The medium was changed all 2-3 days. After the cultivation by submersion, the skin models were further cultivated for 12 days at the air-medium interface (airlift cultivation). […]

CCCCCCCCCCCCOS(=O)(=O)[O-].[Na+] [SDS]
cell viability: approximately 20%
